Assay results published in ChEMBL document CHEMBL5465560, “Selectivity Literature for EUbOPEN Chemogenomic Library” (2024).
pIC50: −log10 of the molar value.

How the values were obtained:
[1] = molecular target: Mitogen-activated protein kinase 9 (Homo sapiens, UniProt P45984); assay: Selectivity interaction (KinomeScan (DiscoverX)) EUB0000655a MAPK9; conditions: at 10 µM
[2] = molecular target: T1, Cyclin-dependent kinase-like 5 (Homo sapiens) (UniProt O76039); assay: Selectivity interaction (KinomeScan (DiscoverX)) EUB0000655a CDKL5; conditions: at 10 µM
T1 sequence (whole entry): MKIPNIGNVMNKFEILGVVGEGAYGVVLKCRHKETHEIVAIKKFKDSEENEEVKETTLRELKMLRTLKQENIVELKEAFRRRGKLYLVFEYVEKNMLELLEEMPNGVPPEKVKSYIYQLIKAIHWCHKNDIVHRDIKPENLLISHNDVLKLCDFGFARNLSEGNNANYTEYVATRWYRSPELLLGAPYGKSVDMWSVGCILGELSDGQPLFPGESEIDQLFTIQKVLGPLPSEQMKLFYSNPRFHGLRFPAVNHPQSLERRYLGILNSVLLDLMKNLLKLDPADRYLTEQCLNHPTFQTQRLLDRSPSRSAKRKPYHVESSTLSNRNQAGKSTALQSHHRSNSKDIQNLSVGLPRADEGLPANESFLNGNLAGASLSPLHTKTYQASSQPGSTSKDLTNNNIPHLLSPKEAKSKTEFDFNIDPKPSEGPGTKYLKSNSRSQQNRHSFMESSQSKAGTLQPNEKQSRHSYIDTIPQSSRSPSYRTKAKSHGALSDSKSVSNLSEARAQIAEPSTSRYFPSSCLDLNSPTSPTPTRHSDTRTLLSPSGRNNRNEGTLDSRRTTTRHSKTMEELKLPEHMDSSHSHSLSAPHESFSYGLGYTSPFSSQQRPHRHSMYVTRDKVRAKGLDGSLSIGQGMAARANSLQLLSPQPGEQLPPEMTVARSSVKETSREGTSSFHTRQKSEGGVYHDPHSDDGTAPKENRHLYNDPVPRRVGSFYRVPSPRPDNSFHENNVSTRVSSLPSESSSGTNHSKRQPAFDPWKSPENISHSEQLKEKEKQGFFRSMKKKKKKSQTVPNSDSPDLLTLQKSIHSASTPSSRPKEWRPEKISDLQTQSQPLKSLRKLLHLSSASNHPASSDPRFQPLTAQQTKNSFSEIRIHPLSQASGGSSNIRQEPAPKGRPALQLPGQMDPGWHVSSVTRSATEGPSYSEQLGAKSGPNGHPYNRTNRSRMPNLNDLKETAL

[3] = molecular target: MAP kinase-activated protein kinase 2 (Homo sapiens, UniProt P49137); assay: Selectivity interaction (KinomeScan (DiscoverX)) EUB0000655a MAPKAPK2; conditions: at 10 µM
MAP kinase-activated protein kinase 2, sequence (P49137 whole entry, looked up): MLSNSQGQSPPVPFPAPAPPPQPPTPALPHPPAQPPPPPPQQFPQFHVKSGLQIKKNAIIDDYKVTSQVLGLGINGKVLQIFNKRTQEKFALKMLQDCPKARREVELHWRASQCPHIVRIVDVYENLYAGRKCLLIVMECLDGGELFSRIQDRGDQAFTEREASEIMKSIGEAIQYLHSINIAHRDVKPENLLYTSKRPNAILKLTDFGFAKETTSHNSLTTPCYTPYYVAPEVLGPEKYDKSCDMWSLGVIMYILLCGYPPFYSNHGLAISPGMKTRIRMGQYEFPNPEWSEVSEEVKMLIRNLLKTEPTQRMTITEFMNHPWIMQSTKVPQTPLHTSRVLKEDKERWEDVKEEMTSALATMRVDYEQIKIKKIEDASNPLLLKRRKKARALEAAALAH

[4] = molecular target: Protein-arginine deiminase type-4 (Homo sapiens, UniProt Q9UM07); assay: Selectivity interaction (Fluorescence polarization ligand binding assay (2 mM calcium)) EUB0000266bCl PADI4
Protein-arginine deiminase type-4, sequence (Q9UM07 whole entry): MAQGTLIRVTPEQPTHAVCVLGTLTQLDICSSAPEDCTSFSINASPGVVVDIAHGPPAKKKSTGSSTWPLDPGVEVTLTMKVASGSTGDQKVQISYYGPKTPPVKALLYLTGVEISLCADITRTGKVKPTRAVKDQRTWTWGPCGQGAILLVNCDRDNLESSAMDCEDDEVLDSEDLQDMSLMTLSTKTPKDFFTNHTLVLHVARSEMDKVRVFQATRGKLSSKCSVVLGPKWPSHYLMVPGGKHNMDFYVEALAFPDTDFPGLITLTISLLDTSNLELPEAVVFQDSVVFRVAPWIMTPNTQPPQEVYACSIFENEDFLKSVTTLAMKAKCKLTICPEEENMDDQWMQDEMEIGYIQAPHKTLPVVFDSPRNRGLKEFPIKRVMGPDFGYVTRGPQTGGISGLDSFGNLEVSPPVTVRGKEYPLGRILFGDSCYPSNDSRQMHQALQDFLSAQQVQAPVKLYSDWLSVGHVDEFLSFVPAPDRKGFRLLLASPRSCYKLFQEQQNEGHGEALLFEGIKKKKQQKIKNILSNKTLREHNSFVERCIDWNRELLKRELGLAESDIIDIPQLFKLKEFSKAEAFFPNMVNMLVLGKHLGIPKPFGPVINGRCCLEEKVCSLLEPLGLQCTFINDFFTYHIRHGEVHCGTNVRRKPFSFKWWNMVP

[5] = tested on: Epidermal growth factor receptor (Homo sapiens), P00533 [UNDEFINED MUTATION]; assay: Selectivity interaction (KinomeScan (DiscoverX)) EUB0000607a EGFR; conditions: at 10 µM
Epidermal growth factor receptor (Homo sapiens), P00533 [UNDEFINED MUTATION], sequence (P00533 whole entry, looked up, change not shown): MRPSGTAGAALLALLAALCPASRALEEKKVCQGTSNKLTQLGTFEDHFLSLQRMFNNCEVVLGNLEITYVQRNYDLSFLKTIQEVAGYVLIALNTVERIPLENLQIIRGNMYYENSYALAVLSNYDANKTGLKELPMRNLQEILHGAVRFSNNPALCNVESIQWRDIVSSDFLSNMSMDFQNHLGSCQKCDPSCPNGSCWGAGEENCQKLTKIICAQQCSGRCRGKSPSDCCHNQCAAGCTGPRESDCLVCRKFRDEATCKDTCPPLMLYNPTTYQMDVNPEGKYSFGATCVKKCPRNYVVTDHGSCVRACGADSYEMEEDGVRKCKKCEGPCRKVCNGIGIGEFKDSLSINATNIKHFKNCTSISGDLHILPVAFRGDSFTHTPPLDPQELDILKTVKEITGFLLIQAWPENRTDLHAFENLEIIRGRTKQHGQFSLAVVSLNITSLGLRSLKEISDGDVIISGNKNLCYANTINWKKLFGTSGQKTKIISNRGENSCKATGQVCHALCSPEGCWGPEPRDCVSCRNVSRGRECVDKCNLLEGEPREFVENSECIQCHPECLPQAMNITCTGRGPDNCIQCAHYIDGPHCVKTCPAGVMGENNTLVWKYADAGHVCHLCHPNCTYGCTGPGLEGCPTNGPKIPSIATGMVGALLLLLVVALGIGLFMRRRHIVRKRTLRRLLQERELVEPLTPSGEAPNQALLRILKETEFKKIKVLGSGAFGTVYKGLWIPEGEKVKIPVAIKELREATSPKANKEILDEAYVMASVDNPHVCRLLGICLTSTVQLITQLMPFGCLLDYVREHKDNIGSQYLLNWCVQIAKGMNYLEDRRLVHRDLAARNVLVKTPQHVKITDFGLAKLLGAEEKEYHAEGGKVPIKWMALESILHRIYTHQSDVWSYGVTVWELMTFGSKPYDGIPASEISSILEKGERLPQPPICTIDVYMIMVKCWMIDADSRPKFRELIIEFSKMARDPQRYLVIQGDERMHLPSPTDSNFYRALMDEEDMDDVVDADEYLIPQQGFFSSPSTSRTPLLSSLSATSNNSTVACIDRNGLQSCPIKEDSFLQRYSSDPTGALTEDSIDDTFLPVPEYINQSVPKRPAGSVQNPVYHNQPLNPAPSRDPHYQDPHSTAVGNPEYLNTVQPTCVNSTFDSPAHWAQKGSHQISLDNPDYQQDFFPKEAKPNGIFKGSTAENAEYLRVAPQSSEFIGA

[6] = molecular target: Bone morphogenetic protein receptor type-1A (Homo sapiens, UniProt P36894); assay: Selectivity interaction (KinomeScan (DiscoverX)) EUB0001049a BMPR1A; conditions: at 1 µM
Bone morphogenetic protein receptor type-1A, sequence (P36894 whole entry): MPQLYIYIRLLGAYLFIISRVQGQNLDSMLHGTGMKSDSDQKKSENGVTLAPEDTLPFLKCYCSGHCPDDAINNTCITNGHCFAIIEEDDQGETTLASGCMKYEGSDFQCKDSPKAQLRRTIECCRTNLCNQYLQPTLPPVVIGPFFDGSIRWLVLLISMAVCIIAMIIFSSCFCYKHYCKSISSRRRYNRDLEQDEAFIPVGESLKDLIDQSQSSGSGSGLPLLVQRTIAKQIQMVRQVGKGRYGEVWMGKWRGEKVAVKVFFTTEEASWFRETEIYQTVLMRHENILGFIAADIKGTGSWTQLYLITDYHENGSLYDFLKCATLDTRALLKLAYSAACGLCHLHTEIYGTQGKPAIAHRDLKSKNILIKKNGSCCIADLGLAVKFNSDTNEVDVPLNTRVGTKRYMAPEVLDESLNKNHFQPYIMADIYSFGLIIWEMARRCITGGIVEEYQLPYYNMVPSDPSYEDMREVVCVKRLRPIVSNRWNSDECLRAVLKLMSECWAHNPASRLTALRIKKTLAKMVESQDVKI

[7] = molecular target: T2, Beta-adrenergic receptor kinase 1 (Homo sapiens) (UniProt P25098); assay: Selectivity interaction (KinomeScan (DiscoverX)) EUB0000695a ADRBK1; conditions: at 100 nM
T2 sequence (whole entry): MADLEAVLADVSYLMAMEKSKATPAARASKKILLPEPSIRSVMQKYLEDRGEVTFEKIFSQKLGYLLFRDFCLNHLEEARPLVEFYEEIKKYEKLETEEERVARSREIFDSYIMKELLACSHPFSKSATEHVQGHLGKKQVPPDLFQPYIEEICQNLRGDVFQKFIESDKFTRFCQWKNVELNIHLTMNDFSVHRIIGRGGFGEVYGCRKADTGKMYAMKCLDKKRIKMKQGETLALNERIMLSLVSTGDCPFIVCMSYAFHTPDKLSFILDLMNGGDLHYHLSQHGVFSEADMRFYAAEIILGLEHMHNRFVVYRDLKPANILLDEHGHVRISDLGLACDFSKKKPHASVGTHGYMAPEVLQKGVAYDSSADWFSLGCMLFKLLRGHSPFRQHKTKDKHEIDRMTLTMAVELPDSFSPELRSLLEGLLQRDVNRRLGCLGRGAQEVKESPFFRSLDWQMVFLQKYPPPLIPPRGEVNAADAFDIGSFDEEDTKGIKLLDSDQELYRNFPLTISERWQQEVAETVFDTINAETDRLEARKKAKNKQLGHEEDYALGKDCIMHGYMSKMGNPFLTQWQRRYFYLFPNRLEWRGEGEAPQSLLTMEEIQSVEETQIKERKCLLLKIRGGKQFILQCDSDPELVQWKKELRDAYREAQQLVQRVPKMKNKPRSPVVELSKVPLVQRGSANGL

[8] = molecular target: T3, Dual specificity mitogen-activated protein kinase kinase 3 (Homo sapiens) (UniProt P46734); assay: Selectivity interaction (ActivX KiNativ screen (ex vivo kinase selectivity in human PBMCs)) EUB0001619a MAP2K3; format: cell-based; conditions: PBMC, at 1 µM
T3 sequence (whole entry): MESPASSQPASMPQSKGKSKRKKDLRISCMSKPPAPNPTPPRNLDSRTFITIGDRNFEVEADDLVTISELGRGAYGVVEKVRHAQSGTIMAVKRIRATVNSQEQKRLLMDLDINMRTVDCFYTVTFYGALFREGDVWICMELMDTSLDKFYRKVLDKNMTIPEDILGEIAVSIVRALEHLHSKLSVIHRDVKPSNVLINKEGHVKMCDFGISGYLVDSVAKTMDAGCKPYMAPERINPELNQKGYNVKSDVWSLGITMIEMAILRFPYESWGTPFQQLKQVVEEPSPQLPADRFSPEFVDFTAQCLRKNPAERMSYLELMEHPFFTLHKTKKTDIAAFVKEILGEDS

Mitogen-activated protein kinase 9, sequence (P45984 whole entry, looked up): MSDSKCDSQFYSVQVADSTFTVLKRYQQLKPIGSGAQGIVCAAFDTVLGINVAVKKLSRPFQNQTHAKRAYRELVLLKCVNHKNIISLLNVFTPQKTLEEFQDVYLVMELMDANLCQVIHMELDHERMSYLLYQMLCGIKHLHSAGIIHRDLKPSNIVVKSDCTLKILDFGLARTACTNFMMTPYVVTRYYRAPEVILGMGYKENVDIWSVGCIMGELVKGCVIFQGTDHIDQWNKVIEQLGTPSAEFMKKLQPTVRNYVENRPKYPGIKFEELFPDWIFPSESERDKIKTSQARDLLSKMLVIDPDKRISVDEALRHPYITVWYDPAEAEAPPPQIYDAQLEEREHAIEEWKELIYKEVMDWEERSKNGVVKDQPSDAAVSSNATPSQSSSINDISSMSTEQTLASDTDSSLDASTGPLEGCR

Structure (SMILES): CN(C)CCOc1ccc(-c2nc(-c3ccncc3)c(-c3ccc4c(c3)CC/C4=N\O)[nH]2)cc1
- % of control [1]: 5.1%
- % of control [2]: 100%
- % of control [3]: 100%

Structure (SMILES): CCn1c(-c2nc3cc(C(=O)N4CCCC(N)C4)ccc3n2C)cc2ccccc21 (stereo not drawn)
- pIC50 [4]: 6.60

Structure (SMILES): CNC(=O)Nc1ccc(-c2nc(N3CC4CCC(C3)O4)c3cnn(C4CCC5(CC4)OCCO5)c3n2)cc1
- % of control [5]: 52%

Structure (SMILES): COc1cc(Nc2nc(C)cc(-c3cnn4nc(OC)ccc34)n2)cc(C(F)(F)F)c1
- % of control [6]: 100%

Structure (SMILES): Cc1cc(F)c(C(=O)Nc2cccc(-c3nncn3C(C)C)n2)cc1-n1cnc(C2CC2)c1
- % of control [7]: 70%

Structure (SMILES): N#Cc1cccc(-c2c[nH]c3ncnc(N4CCOCC4)c23)c1
- % of inhibition [8]: -5%
